Patent US20030027722A1, “Influencing the activity of plant growth regulators” (priority 1998, published 2003)

What was measured:
apple stalk slices = test: rooting regeneration on apple stalk slices with elicitors; assay type: cell-based; details: elicitor 10^−10 M; apple stalk slices
Protocol: The effect of the elicitors on rooting regeneration on apple stalk slices was studied. The stalk slices were incubated on medium with elicitors in combination with a sub-optimal auxin concentration (1 μM indolebutyric acid or 1 μM indoleacetic acid) which were added for 1 or 3 days to the plant tissue for testing. The increase was measured in the number of regenerated roots compared to the auxin control.

saintpaulia = test: shoot regeneration in saintpaulia; assay type: cell-based; details: elicitor 10^−10 M
Protocol: (§1) The elicitor uridine was tested on shoot regeneration in saintpaulia, lateral root formation in pea, cell division in tobacco and root induction in larkspur and apple.

pea = test: lateral root formation in pea; assay type: in vivo; details: elicitor 10^−8 to 10^−16 M
Protocol: as §1

tobacco = test: cell division in tobacco; assay type: cell-based; details: elicitor 10^−10 M
Protocol: as §1

larkspur = test: root induction in larkspur; assay type: in vivo; details: root formation larkspur, elicitor 10^−10 M
Protocol: as §1

Q: O=c1ccn([C@@H]2O[C@H](CO)[C@@H](O)[C@H]2O)c(=O)[nH]1 [uridine] was tested. Which “increased regeneration in relation to control (auxin alone)” value (from here on “increased regeneration in relation”) (apple stalk slices) did it give?
A: Its value is 75%.

Q: What about the “increased regeneration in relation” value (saintpaulia) of the same compound?
A: The value was 100%.

Q: What about the “increased regeneration in relation” value (pea) of the same compound?
A: The value was 100%.

Q: What about the “increased regeneration in relation” value (tobacco) of the same compound?
A: The value was 75%.

Q: And the “increased regeneration in relation” value (larkspur)?
A: Its value is 50%.
